Here are results for 17 compounds from publication PMC6273811, “Synthesis and Antitumor Evaluation of Novel 5-Hydrosulfonyl-1H-benzo[d]imidazol-2(3H)-one Derivatives” (Molecules, 2016).

Structures are written as SMILES. Converted amounts (≈) assume the structure as drawn.

In data set [1] the test system is MDA-MB-468. The data set is described as follows: MTT cell proliferation assay, MDA-MB-468. Conditions: Homo sapiens, 48 h, read-out: In vitro cytotoxic activity IC50, MDA-MB-48. Format: cell-based. On the procedure: (§1) Compounds 5a–o were evaluated for their cytotoxic activity in vitro against some human cancer cell lines, including A549, HCC1937 and MDA-MB-468 by applying a MTT colorimetric assay. Doxorubicin was used as positive control. The calculated IC50 values were reported differently according to the different cancer cells.
(§2) All target compounds were evaluated for their cytotoxic activities (%) in vitro against human cancer cell lines, including A549, HCC1937 and MDA-MB-468, by applying the MTT colorimetric assay. The cell concentration was adjusted to 2 × 10^4/mL using complete culture medium, then 100 μL cell suspension was inoculated in each well of a 96-well culture plate and cultured for 24 h. All the target compounds were adjusted to different concentrations ranging from 1.25 μmol/L to 40 μmol/L, then 100 μL solution was added to each well of 96-well culture plate and 100 μL complete culture medium was added to the control group. Cells were placed under 5% CO2 at 37 °C and cultured for 48 h. Then 5 mg/mL MTT 20 μL was added to each well of 96-well culture plate and cultured for another 2~4 h. The medium was removed and 150 μL DMSO was added to each well of 96-well culture plate, then oscillated and mixed 15 min. The absorbance (A) of each well was measured in terms of optical density at a wavelength of 570 nm, each cell viability assay was performed in triplicate and taken the average value, then calculated the IC50. Doxorubicin was the positive control drug.
(In general: Formazan colour is commonly taken as a measure of viable cells.)

The subject of data set [2] is HCC1937. The data set can be described thus: MTT cell proliferation assay, HCC1937. Format: cell-based. Conditions: Homo sapiens, 48 h, read-out: In vitro cytotoxic activity IC50, HCC1937. On the procedure: as §1, §2
A short description of data set [3]: In vitro cytotoxic activity, Hek293. It is filed as cell-based. Conditions: human, Hek293 cells; unit inferred. From the text:
Table 1 In vitro cytotoxic activity of target compounds: 5a–o. | column: Hek293

In data set [4] the test system is A549. The data set is described as follows: MTT cell proliferation assay, A549. Format: cell-based. Conditions: Homo sapiens, 48 h, read-out: In vitro cytotoxic activity IC50, A549. On the procedure:
as §1, §2

For data set [5], the system named is A549, HCC1937 and MDA-MB-468 cell lines. The data set is described as follows: MTT assay, statements over the three cell lines. Format: cell-based, human. Conditions: for IC50: Homo sapiens, range over the three cell lines and over 5a and 5b, read-out: IC50 toward the A549, HCC1937 and MDA-MB-468 cell lines; for Potency compared to 5a and 5b / Activity toward the cell lines (in words): SAR discussion. On the procedure:
as §1, §2

Data set [6] deals with HCC1937 cells. The data set can be described thus: Annexin V-FITC/PI flow cytometry apoptosis. Format: cell-based, human. Conditions: control 6.7%. As for the experimental part: When the concentration of 5b was 7.5 μM, the proportion of apoptotic cells was 11.4%. When the concentration was 10 μM, the proportion of apoptotic cells was 13.4%. When the concentration was 15 μM, the proportion of apoptotic cells was 12.9%. When the concentration was 20 μM, the proportion of apoptotic cells was 29%. The proportion of apoptotic cells in control group was 6.7%. As the concentration increased, the number of apoptotic cells increased gradually and the number of apoptotic cells and concentration were directly proportional, although there was no significant difference between 10 μM and 15 μM.
The Annexin V-FITC apoptosis detection kit was used to detect apoptotic cells according to the manufacturer’s protocol. Briefly, cells were gently washed with PBS and collected using trypsinization, disaggregated to a single cell suspension and incubated with 5 μL of Annexin V-FITC and 10 μL of a PI solution for 15 min in the dark. The apoptotic cells were detected using a flow cytometer (BD, San Diego, CA, USA), then quantified and the percentage of apoptotic cells measured.

The subject of data set [7] is KM20L2. The arrangement: method as in PMID 9051914. Conditions: cited from earlier work.
Data set [8] has as its system SK-MEL-5. The arrangement: method as in PMID 9051914. Conditions: cited from earlier work.

For `O=c1[nH]c2cc(S(=O)(=O)N3CCOCC3)ccc2n1Cc1ccccc1` [5a, Benzyl-5-(morpholinosulfonyl)-1H-benzo[d]imidazol-2(3H)-one], the melting point lay in the range of 198.5 to 200.1 °C. In addition, the half-maximal inhibitory concentration (IC50) in [1] came out at 9 ± 0.67 µM. The half-maximal inhibitory concentration (IC50) in [2] turned out to be 7.8 ± 0.49 µM. The same compound showed an IC50 in [3] greater than 10000 µM. Further, the 50% inhibitory concentration (IC50) in data set [4] is 5.2 ± 0.35 µM. The IC50 in [5] lay in the range of 2.6 to 9 µM.
In turn, `CN1CCN(S(=O)(=O)c2ccc3c(c2)[nH]c(=O)n3Cc2ccccc2)CC1` [5b, Benzyl-5-(4-methylpiperazin-1-ylsulfonyl)-1H-benzo[d]imidazol-2(3H)-one] gave a melting point of 107.2 to 108.1 °C. For the same compound, in [1], the half-inhibitory concentration (IC50) came to 6.3 ± 0.45 µM. Further, the IC50 in data set [2] came to 2.6 ± 0.21 µM. The same compound showed an IC50 in data set [3] of 293 µM. Further, in [6] (HCC1937, 7.5 μM), the “Proportion of apoptotic cells” value amounted to 11.4%. In [6] (HCC1937, 10 μM), the “Proportion of apoptotic cells” value is 13.4%. In addition, the “Proportion of apoptotic cells” value in data set [6] (HCC1937, 15 μM) came to 12.9%. The “Proportion of apoptotic cells” value in [6] (HCC1937, 20 μM) stood at 29%. For the same compound, in data set [4], the IC50 amounted to 3.1 ± 0.17 µM. For the same compound, the IC50 in data set [5] was in the range of 2.6 to 9 µM.
Turning to `O=c1[nH]c2cc(S(=O)(=O)NC3CCCCC3)ccc2n1Cc1ccccc1` [5c, Benzyl-N-cyclohexyl-2-oxo-2,3-dihydro-1H-benzo[d]imidazole-5-sulfonamide], the melting point fell in the range of 166.7 to 167.2 °C. Besides, in [1], the IC50 is greater than 200 µM. For the same compound, the IC50 in [2] turned out to be 105 ± 8.9 µM. For the same compound, the midpoint of inhibition in [3], the IC50, lay at 248 µM. In [4], the half-maximal inhibitory concentration (IC50) is 88 ± 6.1 µM. Besides, in data set [5], the “Potency compared to 5a and 5b” value is on record as “equivalent to 10-fold inferior potency”.
On to `O=c1[nH]c2cc(S(=O)(=O)N3CCCCC3)ccc2n1Cc1ccccc1` [5d, Benzyl-5-(piperidin-1-ylsulfonyl)-1H-benzo[d]imidazol-2(3H)-one], for which the melting point lay within 189.4 to 190.5 °C. In addition, the concentration for half-maximal inhibition (IC50) in data set [1] was 73 ± 6.9 µM. Moreover, in [2], the 50% inhibitory concentration (IC50) was found to be 85 ± 7.1 µM. This compound came in with a half-maximal inhibitory concentration (IC50) in [3] of 756 µM. In addition, the IC50 in [4] was 77 ± 6.8 µM. For the same compound, the “Potency compared to 5a and 5b” value in data set [5] is on record as “equivalent to 10-fold inferior potency”.
With `O=c1[nH]c2cc(S(=O)(=O)NCc3ccccc3)ccc2n1Cc1ccccc1` [5e, N,1-Dibenzyl-2-oxo-2,3-dihydro-1H-benzo[d]imidazole-5-sulfonamide], the melting point fell in the range of 160.6 to 185.9 °C. Further, the IC50 in data set [1] was greater than 200 µM. In addition, the IC50 in data set [2] came out at 127 ± 9.9 µM. Moreover, in data set [3], the IC50 was greater than 10000 µM. Moreover, in [4], the IC50 was greater than 200 µM. The “Activity toward the cell lines (in words)” value in [5] is given as “almost no activity”.
For the compound `O=C(c1ccccc1)c1cccc(NS(=O)(=O)c2ccc3c(c2)[nH]c(=O)n3Cc2ccccc2)c1` [5f, N-(3-Benzoylphenyl)-1-benzyl-2-oxo-2,3-dihydro-1H-benzo[d]imidazole-5-sulfonamide], the melting point lay in the range of 85.2 to 86.3 °C. In data set [1], the IC50 amounted to 82 ± 6.1 µM. Further, the IC50 in data set [2] was greater than 200 µM. The same compound yielded an IC50 in data set [3] greater than 10000 µM. Further, the IC50 in data set [4] is greater than 200 µM. The “Activity toward the cell lines (in words)” value in data set [5] was “almost no activity”.
`O=c1[nH]c2cc(S(=O)(=O)Nc3ccccc3)ccc2n1Cc1ccccc1` [5g, Benzyl-2-oxo-N-phenyl-2,3-dihydro-1H-benzo[d]imidazole-5-sulfonamide] showed a melting point of 91.9 to 93.3 °C. In addition, the IC50 in data set [1] was greater than 200 µM. Also, the half-maximal inhibitory concentration (IC50) in data set [2] was 152 ± 9.8 µM. In addition, the midpoint of inhibition in data set [3], the IC50, lay at 2000 µM. Besides, in data set [4], the IC50 is greater than 200 µM. The “Activity toward the cell lines (in words)” value in data set [5] is given as “almost no activity”.
Consider `O=c1[nH]c2cc(S(=O)(=O)NC3CC3)ccc2n1Cc1ccccc1` [5h, Benzyl-N-cyclopropyl-2-oxo-2,3-dihydro-1H-benzo[d]imidazole-5-sulfonamide], for which the melting point fell in the range of 168.6 to 170.3 °C. For the same compound, the IC50 in data set [1] is greater than 200 µM. Besides, the IC50 in data set [2] was greater than 200 µM. For the same compound, in data set [3], the IC50 is 370 µM. In data set [4], the half-inhibitory concentration (IC50) is greater than 200 µM. Also, the “Activity toward the cell lines (in words)” value in data set [5] is given as “almost no activity”.
In turn, `CC(C)NS(=O)(=O)c1ccc2c(c1)[nH]c(=O)n2Cc1ccccc1` [5i, Benzyl-N-isopropyl-2-oxo-2,3-dihydro-1H-benzo[d]imidazole-5-sulfonamide] registered a melting point of 173.4 to 174.7 °C. Also, in data set [1], the concentration for half-maximal inhibition (IC50) was greater than 200 µM. Besides, in data set [2], the IC50 is greater than 200 µM. The IC50 in data set [3] came out at 709 µM. For the same compound, in data set [4], the IC50 was greater than 200 µM. For the same compound, in data set [5], the “Activity toward the cell lines (in words)” value is reported as “almost no activity”.
`Cc1ccccc1NS(=O)(=O)c1ccc2c(c1)[nH]c(=O)n2Cc1ccccc1` [5j, Benzyl-2-oxo-N-o-tolyl-2,3-dihydro-1H-benzo[d]imidazole-5-sulfonamide] registered a melting point of 223.6 to 225.7 °C. Further, in data set [1], the IC50 was greater than 200 µM. Besides, in data set [2], the IC50 was greater than 200 µM. In data set [3], this compound showed an IC50 of 666 µM. Further, in data set [4], the IC50 is greater than 200 µM. Also, the “Activity toward the cell lines (in words)” value in data set [5] is given as “almost no activity”.
Regarding `O=c1[nH]c2cc(S(=O)(=O)NC3CCCCC3)ccc2n1CCc1ccccc1` [5k, N-Cyclohexyl-2-oxo-1-phenethyl-2,3-dihydro-1H-benzo[d]imidazole-5-sulfonamide], the melting point lay in the range of 187 to 188.5 °C. In addition, the IC50 in data set [1] came to 135 ± 9.7 µM. For the same compound, in [2], the half-maximal inhibitory concentration (IC50) was greater than 200 µM. The IC50 in [3] turned out to be 384 µM. Moreover, the IC50 in data set [4] is 116 ± 7.6 µM.
Turning to `CN1CCN(S(=O)(=O)c2ccc3c(c2)[nH]c(=O)n3CCc2ccccc2)CC1` [5l, 5-(4-Methylpiperazin-1-ylsulfonyl)-1-phenethyl-1H-benzo[d]imidazol-2(3H)-one], the melting point was in the range of 218.2 to 219.6 °C. Besides, in [1], the half-maximal inhibitory concentration (IC50) amounted to 22 ± 1.6 µM. Further, the IC50 in data set [2] stood at 18 ± 1.2 µM. Moreover, the IC50 in data set [3] amounted to 6310 µM. The IC50 in data set [4] came to 15 ± 1.1 µM.
The corresponding values for `O=c1[nH]c2cc(S(=O)(=O)NC3CC3)ccc2n1CCc1ccccc1` [5m, N-Cyclopropyl-2-oxo-1-phenethyl-2,3-dihydro-1H-benzo[d]imidazole-5-sulfonamide] are 217.8 to 218.9 °C, greater than 200 µM, greater than 200 µM, 448 µM and greater than 200 µM.
The like results for `O=c1[nH]c2cc(S(=O)(=O)N3CCCCC3)ccc2n1CCc1ccccc1` [5n, Phenethyl-5-(piperidin-1-ylsulfonyl)-1H-benzo[d]imidazol-2(3H)-one] were, in that order, 183.3 to 184.3 °C, 12 ± 1.02 µM, 22 ± 1.3 µM, greater than 10000 µM and 16 ± 0.9 µM.
The like results for `O=c1[nH]c2cc(S(=O)(=O)N3CCOCC3)ccc2n1CCc1ccccc1` [5o, 5-(Morpholinosulfonyl)-1-phenethyl-1H-benzo[d]imidazol-2(3H)-one] were, in that order, 102.3 to 104.1 °C, 15 ± 0.93 µM, 11 ± 0.71 µM, greater than 10000 µM and 9.7 ± 0.88 µM.
On to `O=C1N[C@H]2n3c(cc(Br)c3Br)C(=O)N3CCC[C@]23N1` [Dibromophakellstatin], for which the ED50 in data set [7] and in [8] was 0.11 µg/mL (≈ 0.282 µM) in each case.
For `COc1cccc2c1C(=O)c1c(O)c3c(c(O)c1C2=O)C[C@@](O)(C(=O)CO)C[C@@H]3O[C@H]1C[C@H](N)[C@H](O)[C@H](C)O1` [Doxorubicin, reference compound], the IC50 in [1] was 2.7 ± 0.19 µM; in data set [2], 4.8 ± 0.22 µM; in [3], 12.2 µM; in data set [4], 2.5 ± 0.13 µM.

In general, melting point refers to the temperature, or range, at which the solid turns liquid. In general, IC50 refers to the concentration at which inhibition is half-maximal.
